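Compound exposure: 48 hours, 5 concentrations, 96-well plates. TGI is the concentration that stops growth completely.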
What was measured:
Test in all cases: DTP human tumour cell line panel, 48 h
U251 CNS = test system: U251 CNS
SF-295 CNS = test system: SF-295 CNS
CCRF-CEM leukemia = test system: CCRF-CEM leukemia
HCT-116 colon = test system: HCT-116 colon
NCI-H226 lung = test system: NCI-H226 lung
RXF 393 renal = test system: RXF 393 renal
SK-MEL-5 melanoma = test system: SK-MEL-5 melanoma
NCI-H522 lung = test system: NCI-H522 lung
SF-268 CNS = test system: SF-268 CNS
MCF7 breast = test system: MCF7 breast
OVCAR-8 ovarian = test system: OVCAR-8 ovarian
SNB-19 CNS = test system: SNB-19 CNS
UACC-257 melanoma = test system: UACC-257 melanoma
UACC-62 melanoma = test system: UACC-62 melanoma
K-562 leukemia = test system: K-562 leukemia
M14 melanoma = test system: M14 melanoma
HOP-62 NSCLC = test system: HOP-62 NSCLC
SR leukemia = test system: SR leukemia
HCT-15 colon = test system: HCT-15 colon
SW-620 colon = test system: SW-620 colon
KM12 colon = test system: KM12 colon
DU-145 prostate = test system: DU-145 prostate
SK-MEL-28 melanoma = test system: SK-MEL-28 melanoma
MOLT-4 leukemia = test system: MOLT-4 leukemia
OVCAR-4 ovarian = test system: OVCAR-4 ovarian
HT29 colon = test system: HT29 colon
CAKI-1 renal = test system: CAKI-1 renal
PC-3 prostate = test system: PC-3 prostate
EKVX NSCLC = test system: EKVX NSCLC
BT-549 breast = test system: BT-549 breast
786-0 renal = test system: 786-0 renal
A498 renal = test system: A498 renal
UO-31 renal = test system: UO-31 renal
HCC-2998 colon = test system: HCC-2998 colon
ACHN renal = test system: ACHN renal
TK-10 renal = test system: TK-10 renal
A549 NSCLC = test system: A549 NSCLC
MDA-MB-231 breast = test system: MDA-MB-231 breast
COLO 205 colon = test system: COLO 205 colon
NCI-H23 lung = test system: NCI-H23 lung
MALME-3M melanoma = test system: MALME-3M melanoma
OVCAR-3 ovarian = test system: OVCAR-3 ovarian
T-47D breast = test system: T-47D breast
MDA-N = test system: MDA-N
OVCAR-5 ovarian = test system: OVCAR-5 ovarian
SK-OV-3 ovarian = test system: SK-OV-3 ovarian
IGROV1 ovarian = test system: IGROV1 ovarian
HS 578T breast = test system: HS 578T breast
NCI/ADR-RES ovarian = test system: NCI/ADR-RES ovarian
SK-MEL-2 melanoma = test system: SK-MEL-2 melanoma
SNB-75 CNS = test system: SNB-75 CNS
RPMI-8226 leukemia = test system: RPMI-8226 leukemia
MDA-MB-435 = test system: MDA-MB-435
SN12C renal = test system: SN12C renal
LOX IMVI melanoma = test system: LOX IMVI melanoma
SF-539 CNS = test system: SF-539 CNS
HOP-92 NSCLC = test system: HOP-92 NSCLC
NCI-H460 lung = test system: NCI-H460 lung

Measured: TGI

COC(=O)CCC1(C)C2CCC1/C(=N/O)C2 (configuration not stated)
not listed: LOX IMVI melanoma | SF-539 CNS | HOP-92 NSCLC | NCI-H460 lung
> 100 µM: all other assays above

Cc1ncc(CSc2ccccc2N)c(CO)c1O
not listed: CCRF-CEM leukemia | UO-31 renal | HCC-2998 colon | NCI-H460 lung
> 100 µM: all other assays above

CCc1nc(N)c2nc(-c3ccc(C#N)cc3)oc2n1
not listed: U251 CNS | OVCAR-4 ovarian | MALME-3M melanoma | SK-OV-3 ovarian
> 100 µM: all other assays above
